Laboratory results: patent publication US20240075041A1, “TREATMENT OF EOSINOPHILIC DISORDERS WITH AVAPRITINIB” (Blueprint Medicines Corporation, priority 2019, published 2024)
“Also recorded” adds a separate entry of the source.

What was measured:
[1] = Toxicology and safety pharmacology studies; type: in vivo; details: at active doses
[2] = system: tyrosine kinase inhibitor (TKI)-resistant mastocytoma model; assay: TKI-resistant mastocytoma model in vivo
eosinophils = assay: Measurement of absolute eosinophils in Phase 1 clinical trial patients (routine blood test at C1D15); type: in vivo, human; details: adult patients with AdvSM, oral Compound (I) 30 mg to 400 mg QD, C1D15 (after 2 weeks), baseline absolute eosinophil count >0.5, FIGS. 1-4
Experimental: The dose range of Compound (I) is between 30 mg and 400 mg. The patients with baseline absolute eosinophil count of >0.5.
The patients with baseline absolute eosinophil count of >0.5.
The dose range of Compound (I) is between 200 mg and 300 mg. The patients with baseline absolute eosinophil count of >0.5.
(§1) This is a Phase 1, open-label, study designed to evaluate the safety, tolerability, PK, PD, and preliminary antineoplastic activity of Compound (I), administered orally, in adult patients with advanced systemic mastocytosis (AdvSM) and relapsed or refractory myeloid malignancies.
(§2) The study consists of 2 parts: dose-escalation (Part 1) and expansion (Part 2). Approximately 25 patients were in Part 1 and approximately 55 patients were in Part 2.
A treatment cycle is 28 days in duration. Patients presented to the study center on C1D1 for the first dose of study drug and serial PK sampling, PD sample collection, vital sign measurement, electrocardiogram (ECG) monitoring, patient general impression of symptom severity (PGIS) and European Organization for Research and Treatment of Cancer Core Quality of Life Questionnaire (EORTC QLQ-C30), safety monitoring and adverse event (AE) recording.
Eosinophils in patients were measured at C1D15 (cycle 1, day 15) via a routine blood test, see, e.g., LaGow B et al., eds. PDR Lab Advisor. A Comprehensive Point-of-Care Guide for Over 600 Lab Tests. 1st ed. […]

[3] = Phase 1 dose escalation in advanced systemic mastocytosis (NCT02561988); type: in vivo; details: patients with advanced systemic mastocytosis, Phase 1 study, oral
Description: as §1, §2
Patients with AdvSM or a relapsed or refractory myeloid malignancy were enrolled in the dose escalation part of the study. A 3+3 dose-escalation design using cohorts of 3 patients were employed.
The first cohort of patients received Compound (I) at a starting dose of 30 mg once daily (QD). Dose escalation proceeded at increments up to 100% until ≥1 patient treated at a given dose level has a ≥Grade 2 non-hematologic AE or a Grade 4 hematologic AE and the AE (non-hematologic or hematologic) was not clearly attributable to a cause other than Compound (I) or the dose exceeds the highest dose determined to be safe in the ongoing Compound (I) first-in-human (FIH) study in GIST, BLU-285-1101.
Three patients were enrolled initially in each cohort and an additional 3 patients (for a total of 6) were enrolled when the cohort requires expansion due to dose-limiting toxicity (DLT). […]

KIT D816V = KIT D816V (Homo sapiens, UniProt P10721, D816V); assay: Activity against KIT D816V in vitro; type: biochemical
Chain of KIT D816V (P10721 26-976 D816V): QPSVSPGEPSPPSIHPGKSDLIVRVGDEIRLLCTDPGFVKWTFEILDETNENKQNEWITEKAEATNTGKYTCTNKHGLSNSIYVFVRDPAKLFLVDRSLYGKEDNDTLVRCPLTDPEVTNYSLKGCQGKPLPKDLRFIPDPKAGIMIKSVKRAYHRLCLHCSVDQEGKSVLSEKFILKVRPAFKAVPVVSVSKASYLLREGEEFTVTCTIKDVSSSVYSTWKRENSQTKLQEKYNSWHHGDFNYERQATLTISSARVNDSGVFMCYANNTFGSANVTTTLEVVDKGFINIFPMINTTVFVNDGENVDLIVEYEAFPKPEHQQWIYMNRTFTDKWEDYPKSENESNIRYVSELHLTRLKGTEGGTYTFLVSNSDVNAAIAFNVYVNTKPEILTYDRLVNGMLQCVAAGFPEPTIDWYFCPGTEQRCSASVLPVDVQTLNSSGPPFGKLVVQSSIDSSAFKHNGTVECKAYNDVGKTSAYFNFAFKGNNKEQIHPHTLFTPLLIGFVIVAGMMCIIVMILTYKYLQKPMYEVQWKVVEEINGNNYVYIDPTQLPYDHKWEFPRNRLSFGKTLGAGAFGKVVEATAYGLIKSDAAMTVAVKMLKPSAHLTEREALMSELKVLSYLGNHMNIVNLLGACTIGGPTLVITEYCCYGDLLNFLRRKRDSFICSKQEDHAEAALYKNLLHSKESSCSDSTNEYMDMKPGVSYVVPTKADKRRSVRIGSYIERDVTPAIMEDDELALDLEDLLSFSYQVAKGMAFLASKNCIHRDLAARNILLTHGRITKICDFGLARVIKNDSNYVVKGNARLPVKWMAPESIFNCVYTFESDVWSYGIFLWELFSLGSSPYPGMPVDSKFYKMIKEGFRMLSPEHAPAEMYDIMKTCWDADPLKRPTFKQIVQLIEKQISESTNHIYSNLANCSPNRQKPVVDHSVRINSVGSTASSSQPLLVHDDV

SMILES: Cn1cc(-c2cc3c(N4CCN(c5ncc([C@@](C)(N)c6ccc(F)cc6)cn5)CC4)ncnn3c2)cn1 [Compound (I), (S)-1-(4-fluorophenyl)-1-(2-(4-(6-(1-methyl-1H-pyrazol-4-yl)pyrrolo[2,1-f][1,2,4]triazin-4-yl)piperazin-yl)pyrimidin-5-yl)ethan-1-amine]
- tolerability [1]: tolerability at active doses
- growth inhibition in TKI-resistant mastocytoma model [2]: robust growth inhibition
- absolute eosinophil changes from baseline levels (eosinophils): significantly decreases number of absolute eosinophils; also recorded: effectively reduces eosinophil levels
- recommended Phase 2 dose (RP2D) [3]: 300 mg once a day (QD)
- activity against KIT D816V in vitro (KIT D816V): potent and selective activity
